# Measurements published in ChEMBL document CHEMBL1136094, “Novel, potent and selective cyclin D1/CDK4 inhibitors: indolo[6,7-a]pyrrolo[3,4-c]carbazoles” (Bioorg Med Chem Lett, 2003).
# Assays:
# [1] = target: Cyclin-dependent kinase 2/cyclin E (Homo sapiens, UniProt P24941); experiment: Inhibitory activity against Cyclin E-cyclin-dependent kinase 2 in enzymatic assay by measuring phosphorylation of RbING; assay type: protein-complex assay
# [2] = target: T1, Cyclin-dependent kinase 4/cyclin D1 (Homo sapiens, UniProt P11802); experiment: Inhibitory activity against Cyclin D1-cyclin-dependent kinase 4 in enzymatic assay by measuring phosphorylation of Rb21; assay type: protein-complex assay
# T1 sequence (P11802 whole entry): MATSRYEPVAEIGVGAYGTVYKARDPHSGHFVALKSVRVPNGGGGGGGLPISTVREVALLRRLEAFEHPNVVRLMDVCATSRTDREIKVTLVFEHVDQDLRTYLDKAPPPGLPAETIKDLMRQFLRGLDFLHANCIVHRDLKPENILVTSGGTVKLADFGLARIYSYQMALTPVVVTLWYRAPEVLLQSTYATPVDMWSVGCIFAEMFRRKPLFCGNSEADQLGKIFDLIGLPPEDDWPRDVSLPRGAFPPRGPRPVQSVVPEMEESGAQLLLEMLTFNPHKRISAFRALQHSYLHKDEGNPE
# T1 sequence (P24385 whole entry, further chain): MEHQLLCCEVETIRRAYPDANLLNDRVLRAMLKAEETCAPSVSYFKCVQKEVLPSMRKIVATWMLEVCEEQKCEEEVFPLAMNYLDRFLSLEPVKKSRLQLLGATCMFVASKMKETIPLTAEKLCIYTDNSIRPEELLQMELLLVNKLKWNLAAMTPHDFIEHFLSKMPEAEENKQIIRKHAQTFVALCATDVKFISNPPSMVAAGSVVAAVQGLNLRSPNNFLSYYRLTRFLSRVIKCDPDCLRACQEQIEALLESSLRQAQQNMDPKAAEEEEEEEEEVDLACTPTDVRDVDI
# [3] = target: T1, Cyclin-dependent kinase 4/cyclin D1; experiment: Inhibitory activity against Cyclin D1-cyclin-dependent kinase 4 in enzymatic assay by measuring phosphorylation of RbING; assay type: protein-complex assay
# HCT-116 [4] = experiment: Flow cytometry of HCT116 cells, G1 arrest (1 fold increase over control) after 24 hr r; assay type: functional, Homo sapiens
# HCT-116 [5] = experiment: Flow cytometry of HCT116 cells, G1 arrest (3 fold increase over control) after 24 hr r; assay type: functional, Homo sapiens
# HCT-116 [6] = experiment: In vitro antiproliferative activity against human carcinoma cell line HCT116 (colon); assay type: functional, cell-based
# [7] = target: Cyclin-dependent kinase 4 (Homo sapiens) (UniProt P11802); experiment: Inhibition of Rb phosphorylation at the CDK4 specific Ser780 residue (1 fold increase over control) after 24 hr incubation in HCT116 cells; assay type: functional, cell-based; details: HCT-116, concentration not given here
# Sequence of Cyclin-dependent kinase 4 (Homo sapiens) (P11802 whole entry): as the sequence (P11802 whole entry) above
# [8] = target: Cyclin-dependent kinase 4 (Homo sapiens) (UniProt P11802); experiment: Inhibition of Rb phosphorylation at the CDK4 specific Ser780 residue (3 fold increase over control) after 24 hr incubation in HCT116 cells; assay type: functional, cell-based; details: HCT-116, concentration not given here
# [9] = target: cAMP-dependent protein kinase (PKA) (Homo sapiens, UniProt P22694+P17612+P22612); experiment: Inhibitory activity against Protein kinase A (Histone); assay type: protein assay
# HCT-116 [10] = experiment: Flow cytometry of HCT116 cells, G1 arrest ( fold increase over control) after 24 hr r; assay type: functional, Homo sapiens
# HCT-116 [11] = experiment: Flow cytometry of HCT116 cells, G1 arrest (fold increase over control) after 24 hr r incubation; assay type: functional, Homo sapiens
# NCI-H460 = experiment: In vitro antiproliferative activity against human carcinoma cell line H460 (lung); assay type: functional, cell-based
Structure (SMILES),IC50 [1] [nM],IC50 [2] [nM],IC50 [3] [nM],Fold increase (HCT-116 [4]),Fold increase (HCT-116 [5]),IC50 (HCT-116 [6]) [nM],inhibition [7] [%],inhibition [8] [%],IC50 [9] [nM],Fold increase (HCT-116 [10]),Fold increase (HCT-116 [11]),IC50 (NCI-H460) [nM]
Cn1ccc2ccc3c4[nH]c5c(CCO)cccc5c4c4c(c3c21)C(=O)NC4=O,210,75,82,1.4,2.7,1130,60,92,> 2000,,,
Cn1ccc2ccc3c4[nH]c5ccccc5c4c4c(c3c21)C(=O)NC4=O,75,22,47,,,2110,63,97,> 2000,2.5,1.4,1170
